Experimental findings from ChEMBL document CHEMBL1201862, “PubChem BioAssay data set” (2004) are described below.

Test systems include A498; CAKI-1; CCRF-CEM; HCT-15; IGROV-1; M14; NCI-H226; NCI-H460; OVCAR-4; OVCAR-5; SK-MEL-28; SK-MEL-5; SK-OV-3; SNB-19; SNB-75; U-251; UACC-62; HCC 2998.
What all share (experiment): inhibition of tumour cell growth, NCI panel, 48 h

Each structure is given as a SMILES string.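 How tested: cells in 96-well plates exposed to compound for 48 hours at five concentrations. Abbreviation: GI50, concentration required for 50% inhibition of growth.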 Calls of active or inactive are those of the source. Rule as the data show it: active = GI50 up to about 1.1 µM and inactive = higher.

For the molecule `CC(C)c1cccc(C(C)C)c1NC(=O)C(=O)C1SC(=S)NC1=O` (stereo unspecified), the GI50 in the assay on A498 is > 100 µM (inactive); in the assay on CAKI-1, > 100 µM (inactive); in the assay on CCRF-CEM, > 100 µM (inactive); in the assay on HCT-15, over 100 µM; in the assay on IGROV-1, > 100 µM (inactive); in the assay on M14 it was > 100 µM (inactive). In addition, the GI50 with NCI-H226, with NCI-H460, with OVCAR-4, in the assay with OVCAR-5, in the assay with SK-MEL-28 and in the assay on SK-MEL-5 was > 100 µM (inactive) in each case. Moreover, the GI50 with SK-OV-3, with SNB-19, in the assay on SNB-75, in the assay on U-251 and with UACC-62 was > 100 µM (inactive) in each case.
`O=c1cccccc1NCCCCCCCNc1cccccc1=O`: the GI50 in the assay on CAKI-1 was 45.6 µM (inactive); in the assay with CCRF-CEM, 13.4 µM (inactive); in the assay with HCT-15, 35.2 µM; in the assay on IGROV-1, 54.2 µM (inactive); in the assay with M14, 23 µM (inactive); in the assay on NCI-H226, 34.5 µM (inactive). The GI50 with NCI-H460 is 29.7 µM (inactive); with OVCAR-4 it was 27 µM (inactive); in the assay with OVCAR-5, 77.1 µM (inactive); in the assay on SK-OV-3, 42.6 µM (inactive); in the assay with SNB-19 it was 33.7 µM (inactive); with SNB-75 it was 95.9 µM (inactive). Also, the GI50 with U-251 was > 10 µM (inactive); in the assay with UACC-62, 19.4 µM (inactive).
Regarding `O=c1oc2c3ccc4ccccc4c3n(CCN3CCCCC3)c2c2ccccc12`, the GI50 with CAKI-1 was 48.2 µM (inactive); in the assay with CCRF-CEM, 9.35 µM (inactive); in the assay on HCC 2998 it was 80.5 µM (inactive); in the assay on HCT-15, 38.2 µM; with IGROV-1, > 55.2 µM (inactive); with M14 it was 20 µM (inactive). For the same molecule, the GI50 in the assay on NCI-H460 is 4.12 µM (inactive); in the assay with OVCAR-4, 23.8 µM (inactive); with OVCAR-5, > 100 µM (inactive); in the assay on SK-MEL-28, > 71.6 µM (inactive); with SK-MEL-5, 40.7 µM (inactive); in the assay on SK-OV-3, 43.1 µM (inactive). In addition, the GI50 is 28.8 µM (inactive) in the assay with SNB-19, 4.98 µM (inactive) in the assay on SNB-75, 17.7 µM (inactive) in the assay with U-251 and 36.3 µM (inactive) in the assay with UACC-62.
`Cc1ccc(Oc2ccccc2N)cc1`: the GI50 in the assay with A498 is > 100 µM (inactive); in the assay with CCRF-CEM it was 7.03 µM (inactive); in the assay on HCC 2998 it was 15.4 µM (inactive); in the assay with HCT-15, 19.5 µM; in the assay on IGROV-1, 50.4 µM (inactive); in the assay on M14, 33.5 µM (inactive). Further, the GI50 in the assay with NCI-H460 was 37.8 µM (inactive); with OVCAR-4, 50.9 µM (inactive); in the assay with OVCAR-5, 40.6 µM (inactive); in the assay with SK-MEL-28, 18.2 µM (inactive); in the assay with SK-MEL-5, 7.89 µM (inactive); in the assay with SK-OV-3 it was > 100 µM (inactive). The GI50 with SNB-19 is 78.5 µM (inactive); with SNB-75, 16 µM (inactive); with U-251, 4.43 µM (inactive); in the assay with UACC-62, 60.1 µM (inactive).
As for `CC1C(=O)N(C)C2(CO)C(=O)O[C@H](C)C12O` (stereo partly specified), the GI50 in the assay with CAKI-1 is > 100 µM (inactive); in the assay with HCC 2998 it was > 100 µM (inactive); with HCT-15, over 100 µM; in the assay on IGROV-1, > 100 µM (inactive); with M14 it was > 100 µM (inactive); with OVCAR-4, > 100 µM (inactive). The GI50 in the assay with OVCAR-5, in the assay with SK-MEL-28, in the assay on SK-MEL-5, with SK-OV-3, with SNB-19 and with U-251 was > 100 µM (inactive) throughout. For the same molecule, in the assay on UACC-62, the GI50 is > 100 µM (inactive).
